Results published in patent US20240083898A1, “TRICYCLIC TRIAZOLO COMPOUNDS AS DGK INHIBITORS” (Incyte Corporation, priority 2022, published 2024).

How the values were obtained:
DGKα = biological target: T1, DGKα (Homo sapiens, UniProt P23743); experiment: In vitro DGKα inhibition assay (ADP-Glo); type: biochemical; settings: His-tagged human recombinant enzyme, 0.1 nM DGKα, 50 μM ATP, 20 μM DLG, 90 minute incubation
T1 construct: His; purchased Signal Chem D21-10BH
Experimental: (§1) The DGKα and DGKζ biochemical reactions were performed using His-tagged human recombinant enzymes (Signal Chem, DGKα, #D21-10BH; DGKζ, #D30-10H)) and DLG (Dilauroyl-sn-glycerol) lipid substrate (Signal Chem, #D430-59). ADP-Glo assay was performed using ADP-Glo™ kinase Assay kit (Promega, #V9104). The reactions were carried out in assay buffer containing 40 mM Tris, pH 7.5, 0.1% CHAPS, 0.1% Prionex, 40 mM NaCl, 5 mM MgCl2, 1 mM CaCl2, and 1 mM DTT. DGKα reactions contained 0.1 nM DGKα, 50 μM ATP, and 20 μM DLG. And DGKζ reactions contained 0.4 nM DGKζ, 30 μM ATP, and 20 μM DLG.
(§2) For compound inhibition studies, 40 nL test compound in DMSO was added to wells of white polystyrene plates in 384-well (Greiner, #784075) or 1536-well format (Greiner, #782075). Compounds were added with top concentration of 2 mM with 11 point, 3-fold dilution series. Enzyme solution (contains 2× DGK enzyme concentration in 1× assay buffer) was added to the plate in 2 μL/well volume, followed by 2 μL/well of substrate solution (contains 2× concentration of ATP and DLG substrate in 1× assay buffer). Plates were then centrifuged for 1 min at 1200 RPM and sealed or lidded. For 4 μL reaction volume, test compounds were therefore diluted 100× to final top concentration of 20 μM. After 90 minute incubation, reactions were quenched by addition of 2 μL/well Promega ADP-Glo Reagent, followed by centrifugation and lidding. After 60 min incubation, 2 μL/well Promega Kinase Detection Reagent was added, plates centrifuged, and incubated for 30 min. Plates were then read using Luminescence method on BMG PHERAstar FSX plate reader. Percent inhibition was calculated and IC50s were determined using 4-parameter fit in Genedata Screener. Labcyte Echo acoustic dispenser was used for compound addition, and Formulatrix Tempest liquid handler was used for all reagent dispenses.

DGKζ = biological target: T2, DGKζ (Homo sapiens, UniProt Q13574); experiment: In vitro DGKζ inhibition assay (ADP-Glo); type: biochemical; settings: His-tagged human recombinant enzyme, 0.4 nM DGKζ, 30 μM ATP, 20 μM DLG, 90 minute incubation
T2 construct: His; purchased Signal Chem D30-10H
Experimental: as §1, §2

T1 sequence (P23743 whole entry): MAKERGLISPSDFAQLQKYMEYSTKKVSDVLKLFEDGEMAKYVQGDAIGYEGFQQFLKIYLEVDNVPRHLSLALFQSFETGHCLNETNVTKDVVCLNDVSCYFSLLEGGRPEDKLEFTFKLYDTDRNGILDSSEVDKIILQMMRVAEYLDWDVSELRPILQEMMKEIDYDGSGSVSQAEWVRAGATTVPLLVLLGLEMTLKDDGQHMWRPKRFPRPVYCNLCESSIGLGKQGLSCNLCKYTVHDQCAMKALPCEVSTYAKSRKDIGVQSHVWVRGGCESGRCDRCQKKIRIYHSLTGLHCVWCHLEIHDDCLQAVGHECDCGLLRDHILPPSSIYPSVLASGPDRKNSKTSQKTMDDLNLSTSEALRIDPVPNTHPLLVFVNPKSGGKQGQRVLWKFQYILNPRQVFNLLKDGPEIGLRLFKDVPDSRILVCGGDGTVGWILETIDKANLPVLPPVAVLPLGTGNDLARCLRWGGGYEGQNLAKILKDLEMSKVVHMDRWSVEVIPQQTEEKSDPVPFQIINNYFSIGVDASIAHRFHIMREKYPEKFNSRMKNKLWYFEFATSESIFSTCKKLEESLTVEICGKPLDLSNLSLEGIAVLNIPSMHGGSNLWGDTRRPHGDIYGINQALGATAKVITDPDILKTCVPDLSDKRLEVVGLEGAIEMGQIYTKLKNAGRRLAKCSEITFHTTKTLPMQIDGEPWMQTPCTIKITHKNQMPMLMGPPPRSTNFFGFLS
T2 sequence (Q13574 whole entry): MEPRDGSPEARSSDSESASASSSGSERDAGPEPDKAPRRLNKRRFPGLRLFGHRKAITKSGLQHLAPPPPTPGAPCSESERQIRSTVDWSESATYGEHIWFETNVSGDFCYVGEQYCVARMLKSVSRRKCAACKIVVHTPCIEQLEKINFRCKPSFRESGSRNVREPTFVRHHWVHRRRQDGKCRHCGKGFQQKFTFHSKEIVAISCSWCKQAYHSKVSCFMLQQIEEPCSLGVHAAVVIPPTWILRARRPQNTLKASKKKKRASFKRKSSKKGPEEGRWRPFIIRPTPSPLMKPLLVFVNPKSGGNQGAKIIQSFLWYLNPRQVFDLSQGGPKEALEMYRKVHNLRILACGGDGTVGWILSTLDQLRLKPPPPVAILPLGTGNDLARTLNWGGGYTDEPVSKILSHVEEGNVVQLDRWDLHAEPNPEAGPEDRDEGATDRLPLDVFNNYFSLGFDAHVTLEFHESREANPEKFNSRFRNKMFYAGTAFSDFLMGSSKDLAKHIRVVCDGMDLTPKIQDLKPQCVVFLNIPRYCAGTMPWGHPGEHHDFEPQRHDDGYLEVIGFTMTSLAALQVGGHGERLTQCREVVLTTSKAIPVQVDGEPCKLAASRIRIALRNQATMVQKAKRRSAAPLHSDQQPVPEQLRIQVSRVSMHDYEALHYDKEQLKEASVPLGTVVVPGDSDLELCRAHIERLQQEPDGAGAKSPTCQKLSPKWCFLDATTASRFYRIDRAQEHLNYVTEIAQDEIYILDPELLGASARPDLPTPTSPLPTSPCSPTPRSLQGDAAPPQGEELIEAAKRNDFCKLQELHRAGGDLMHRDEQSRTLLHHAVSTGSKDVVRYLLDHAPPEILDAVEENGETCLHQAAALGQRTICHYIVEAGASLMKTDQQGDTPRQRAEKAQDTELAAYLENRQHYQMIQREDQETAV

SMILES | IC50 (DGKα) | IC50 (DGKζ)
CC[C@@H]1CN(c2nc3nncn3c3cccnc23)[C@@H](C)CN1C(C(=O)OC)c1ccc(F)cc1 (single isomer, unassigned) [Example 12] | ≤ 20 nM | 20 to 200 nM
CC[C@@H]1CN(c2nc3nncn3c3cccnc23)[C@@H](C)CN1C(c1ccc(F)cc1)C(C)(C)O (single isomer, unassigned) [Example 15] | 20 to 200 nM | 20 to 200 nM
CC[C@H]1CN(C(c2ccc(F)cc2)c2ccc(F)cc2)[C@H](CC)CN1c1nc2nncn2c2ccc(C)nc12 [Example 1, 5-((2S,5R)-4-(Bis(4-fluorophenyl)methyl)-2,5-diethylpiperazin-1-yl)-7-methylpyrido[2,3-e][1,2,4]triazolo[4,3-a]pyrimidine] | ≤ 20 nM | ≤ 20 nM
CC[C@H]1CN(C(c2ccc(F)cc2)c2ccc(F)cc2)[C@H](CC)CN1c1nc2nncn2c2cccnc12 [Example 2, 5-((2S,5R)-4-(Bis(4-fluorophenyl)methyl)-2,5-diethylpiperazin-1-yl)pyrido[2,3-e][1,2,4]triazolo[4,3-a]pyrimidine] | ≤ 20 nM | ≤ 20 nM
CC[C@H]1CN(C(c2ccc(F)cc2)c2ccc(F)cc2)[C@H](CC)CN1c1nc2nncn2c2cc(-c3cnn(C)c3)cnc12 [Example 6, 5-((2S,5R)-4-(Bis(4-fluorophenyl)methyl)-2,5-diethylpiperazin-1-yl)-8-(1-methyl-1H-pyrazol-4-yl)pyrido[2,3-e][1,2,4]triazolo[4,3-a]pyrimidine] | ≤ 20 nM | > 2000 nM
CC[C@H]1CN(C(c2ccc(F)cc2)c2ccc(F)cc2)[C@H](CC)CN1c1cc2nncn2c2cccnc12 [Example 7, 5-((2S,5R)-4-(Bis(4-fluorophenyl)methyl)-2,5-diethylpiperazin-1-yl)-[1,2,4]triazolo[4,3-a][1,5]naphthyridine] | ≤ 20 nM | 20 to 200 nM
CC[C@@H]1CN(c2nc3nncn3c3nccnc23)[C@@H](C)CN1C(c1ccc(F)cc1)c1ccc(F)cc1 [Example 8, 5-((2S,5R)-4-(Bis(4-fluorophenyl)methyl)-5-ethyl-2-methylpiperazin-1-yl)-[1,2,4]triazolo[4,3-a]pteridine] | ≤ 20 nM | ≤ 20 nM

The next lines start with the values.

IC50 (DGKα) | IC50 (DGKζ) | SMILES
≤ 20 nM | 20 to 200 nM | CC[C@@H]1CN(c2nc3nncn3c3cccnc23)[C@@H](C)CN1C(c1ccc(F)cc1)c1nc(C2CC2)no1 (mixture of isomers) [Example 9, 3-Cyclopropyl-5-(((2R,5S)-2-ethyl-5-methyl-4-(pyrido[2,3-e][1,2,4]triazolo[4,3-a]pyrimidin-5-yl)piperazin-1-yl)(4-fluorophenyl)methyl)-1,2,4-oxadiazole]
≤ 20 nM | 20 to 200 nM | CC[C@@H]1CN(c2nc3nncn3c3cccnc23)[C@@H](C)CN1C(C(=O)OC)c1ccc(F)cc1 (single isomer, unassigned) [Example 13]
≤ 20 nM | 200 to 2000 nM | CC[C@@H]1CN(c2nc3nncn3c3cccnc23)[C@@H](C)CN1C(c1ccc(F)cc1)C(C)(C)O (single isomer, unassigned) [Example 14]
≤ 20 nM | ≤ 20 nM | CC[C@H]1CN(C(c2ccc(F)cc2)c2ccc(F)cc2)[C@H](CC)CN1c1nc2nnc(C)n2c2cccnc12 [Example 3, 5-((2S,5R)-4-(Bis(4-fluorophenyl)methyl)-2,5-diethylpiperazin-1-yl)-1-methylpyrido[2,3-e][1,2,4]triazolo[4,3-a]pyrimidine]
≤ 20 nM | ≤ 20 nM | CC[C@H]1CN(C(c2ccc(F)cc2)c2ccc(F)cc2)[C@H](CC)CN1c1nc2nncn2c2nccnc12 [Example 4, 5-((2S,5R)-4-(Bis(4-fluorophenyl)methyl)-2,5-diethylpiperazin-1-yl)-[1,2,4]triazolo[4,3-a]pteridine]
≤ 20 nM | ≤ 20 nM | CC[C@H]1CN(C(c2ccc(F)cc2)c2ccc(F)cc2)[C@H](CC)CN1c1nc2nncn2c2ccc(C#N)nc12 [Example 5, 5-((2S,5R)-4-(Bis(4-fluorophenyl)methyl)-2,5-diethylpiperazin-1-yl)pyrido[2,3-e][1,2,4]triazolo[4,3-a]pyrimidine-7-carbonitrile]
≤ 20 nM | 20 to 200 nM | CC[C@@H]1CN(c2nc3nncn3c3cccnc23)[C@@H](C)CN1Cc1ccc2cc(F)ccc2n1 [Example 10, 5-((2S,5R)-5-Ethyl-4-((6-fluoroquinolin-2-yl)methyl)-2-methylpiperazin-1-yl)pyrido[2,3-e][1,2,4]triazolo[4,3-a]pyrimidine]
≤ 20 nM | ≤ 20 nM | CC[C@@H]1CN(c2nc3nncn3c3cccnc23)[C@@H](C)CN1Cc1cccc2ccccc12 [Example 11, 5-((2S,5R)-5-Ethyl-2-methyl-4-(naphthalen-1-ylmethyl)piperazin-1-yl)pyrido[2,3-e][1,2,4]triazolo[4,3-a]pyrimidine]
